Data on five compounds can be found in ChEMBL document CHEMBL1201862, “PubChem BioAssay data set” (2004).

Holding throughout (assay): NCI anticancer screen, dose series, 48 h
Test [1] relates to ACHN.
Test [2] has as its system BT-549.
Test [3] relates to CCRF-CEM.
The subject of test [4] is HCC 2998.
The test system of test [5] is HCT-116.
Test [6] has as its system HOP-92.
The subject of test [7] is Hs-578T.
The subject of test [8] is LOX IMVI.
Test [9] concerns MDA-MB-231.
Test [10] deals with Malme-3M.
Test [11] concerns NCI-H23.
In test [12] the test system is NCI-H460.
Test [13] deals with NCI/ADR-RES.
Test [14] has as its system OVCAR-8.
The test system of test [15] is PC-3.
In test [16] the test system is SK-MEL-28.
Test [17] relates to SK-MEL-2.
Test [18] relates to SN12C.
In test [19] the test system is SNB-19.
The test system of test [20] is U-251.

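Growth conditions: 96-well plates. Treatment: test compound, 48 hours, 5 concentrations. Analysis: linear interpolation between bracketing concentrations; unreached endpoints set to highest concentration. Abbreviation: GI50, concentration required for 50% inhibition of growth.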 Activity calls are given as the source filed them. Cut-off read from the data, not from the text of the source: active = GI50 up to about 1.1 µM and inactive = higher.

For `COc1ccc2nc3ccc(OC)cc3c([S+]([O-])Cc3ccccc3)c2c1` (stereo not given), the GI50 in test [1] was 4.03 µM (inactive); in test [2], 14.3 µM (inactive); in test [3] it was 2.65 µM (inactive); in [4], 19.4 µM (inactive); in test [5], 2.45 µM (inactive); in test [6] it was 4.76 µM (inactive). Besides, the GI50 is 8.22 µM (inactive) in [7]; 2.07 µM (inactive) in test [8]; 16 µM (inactive) in [9]; 2.42 µM (inactive) in test [10]; 8.81 µM (inactive) in test [11]; 25.5 µM (inactive) in test [12]. The GI50 in [13] is 20.3 µM (inactive); in test [14] it was 3.48 µM (inactive); in [15] it was 14.2 µM (inactive); in test [16] it was 9.33 µM (inactive); in test [17], 17 µM (inactive); in test [18], 7.62 µM (inactive). Also, the GI50 in test [19] was 18 µM (inactive); in [20], 20.5 µM (inactive).

Turning to `COc1cc(/C=C2\N=C(c3ccccc3)N(/N=C3\C(=O)Nc4ccccc43)C2=O)cc(OC)c1OC`, the GI50 in [1] was > 100 µM (inactive); in [2] it was > 100 µM (inactive); in test [3], 37.1 µM (inactive); in test [4], > 100 µM (inactive); in test [5] it was > 100 µM (inactive); in test [6], 40.3 µM (inactive). For the same compound, the GI50 is 54 µM (inactive) in test [7]; 90.8 µM (inactive) in test [8]; > 100 µM (inactive) in [9]; 58.5 µM (inactive) in test [10]; 86.1 µM (inactive) in test [11]; > 100 µM (inactive) in test [12]. Also, the GI50 is > 100 µM (inactive) in test [13]; 94.2 µM (inactive) in test [14]; > 100 µM (inactive) in [15]; > 100 µM (inactive) in test [16]; > 100 µM (inactive) in test [17]; > 100 µM (inactive) in [18]. Besides, the GI50 in [19] and in [20] was > 100 µM (inactive) throughout.

For the compound `Cc1c(C(=O)Nc2ccccc2)nnn1-c1ccnc2cc(C(F)(F)F)ccc12`, the GI50 in test [1] was 54.7 µM (inactive); in [2] it was > 100 µM (inactive); in test [3], 39.4 µM (inactive); in test [4], 38.1 µM (inactive); in [5] it was 45.5 µM (inactive); in test [6], 24.9 µM (inactive). Further, the GI50 in test [7] is > 100 µM (inactive); in [8], 28.6 µM (inactive); in [9], 19.1 µM (inactive); in test [10] it was 37 µM (inactive); in test [11], 50.6 µM (inactive); in [12] it was 41.6 µM (inactive). Also, the GI50 was 42.6 µM (inactive) in test [13]; 76.9 µM (inactive) in test [14]; 30.1 µM (inactive) in test [15]; > 100 µM (inactive) in [16]; > 100 µM (inactive) in test [17]; 53.2 µM (inactive) in [18]. The GI50 was 33.5 µM (inactive) in [19] and 68.4 µM (inactive) in test [20].

Take `COc1cc(C2C=C(c3ccccc3)Oc3cc4c(cc32)OCO4)cc(OC)c1OC` (stereo not given): the GI50 in test [1] is 1.53 µM (inactive); in test [2] it was 0.632 µM (active); in test [3] it was 0.46 µM (active); in test [4] it was 0.341 µM (active); in [5], 0.311 µM (active); in test [6], 15 µM (inactive). Moreover, the GI50 was 0.348 µM (active) in test [7]; 0.569 µM (active) in test [8]; 0.458 µM (active) in test [9]; 0.527 µM (active) in test [10]; 0.436 µM (active) in test [11]; 0.436 µM (active) in test [12]. Also, the GI50 in test [13] is 0.312 µM (active); in test [14] it was 0.502 µM (active); in [15], 0.354 µM (active); in [16], 0.57 µM (active); in test [17], 1.91 µM (inactive); in [18], 0.675 µM (active). Besides, the GI50 in test [19] is 3.94 µM (inactive); in [20] it was 0.449 µM (active).

For `O=c1[nH]cnc2c1ncn2[C@@H]1C[C@H]1CO`, the GI50 in test [1], in [2], in test [3], in test [4], in [5] and in test [6] was > 100 µM (inactive) throughout. Besides, the GI50 in test [7], in [8], in test [9], in [10], in [11] and in [12] was > 100 µM (inactive) throughout. The GI50 in test [13], in test [14], in [15], in test [16], in test [17] and in test [18] was > 100 µM (inactive) in each case. Further, the GI50 in test [19] and in [20] was > 100 µM (inactive) each time.
